Assay results published in ChEMBL document CHEMBL2413072, “Synthesis and in vitro anticancer studies of novel C-2 arylidene congeners of lantadenes” (2013).

Assays:
Assay type in all cases: functional
786-0 [1] = test: Growth inhibition of human 786-0 cells assessed as cell growth at 10^-7 M by sulforhodamine B assay; conditions: read-out: Activity
786-0 [2] = test: Growth inhibition of human 786-0 cells assessed as cell growth at 10^-4 M by sulforhodamine B assay; conditions: read-out: Activity
KM12 = test: Growth inhibition of human KM12 cells by sulforhodamine B assay
SW-620 [3] = test: Growth inhibition of human SW620 cells assessed as cell growth at 10^-6 M by sulforhodamine B assay; conditions: read-out: Activity
NCI-H322M [4] = test: Growth inhibition of human NCI-H322M cells by sulforhodamine B assay
MDA-MB-468 = test: Growth inhibition of human MDA-MB-468 cells assessed as cell growth at 10^-6 M by sulforhodamine B assay; conditions: read-out: Activity
MOLT-4 = test: Growth inhibition of human MOLT4 cells assessed as cell growth at 10^-8 M by sulforhodamine B assay; conditions: read-out: Activity
HOP-62 = test: Growth inhibition of human HOP62 cells by sulforhodamine B assay
TK-10 [5] = test: Growth inhibition of human TK10 cells assessed as cell growth at 10^-4 M by sulforhodamine B assay; conditions: read-out: Activity
A549 [6] = test: Growth inhibition of human A549/ATCC cells assessed as cell growth at 10^-6 M by sulforhodamine B assay; conditions: read-out: Activity
K562 [7] = test: Growth inhibition of human K562 cells by sulforhodamine B assay
IGROV-1 [8] = test: Growth inhibition of human IGROV1 cells assessed as cell growth at 10^-4 M by sulforhodamine B assay; conditions: read-out: Activity
OVCAR-4 = test: Growth inhibition of human OVCAR4 cells assessed as cell growth at 10^-6 M by sulforhodamine B assay; conditions: read-out: Activity
HCT-15 = test: Growth inhibition of human HCT15 cells assessed as cell growth at 10^-7 M by sulforhodamine B assay; conditions: read-out: Activity
K562 [9] = test: Growth inhibition of human K562 cells assessed as cell growth at 10^-7 M by sulforhodamine B assay; conditions: read-out: Activity
IGROV-1 [10] = test: Growth inhibition of human IGROV1 cells by sulforhodamine B assay
HCT-116 = test: Growth inhibition of human HCT116 cells assessed as cell growth at 10^-4 M by sulforhodamine B assay; conditions: read-out: Activity
NCI-H322M [11] = test: Growth inhibition of human NCI-H322M cells assessed as cell growth at 10^-4 M by sulforhodamine B assay; conditions: read-out: Activity
[12] = Growth inhibition of human NCI-ADR-RES cells by sulforhodamine B assay
PC-3 = test: Growth inhibition of human PC3 cells assessed as cell growth at 10^-7 M by sulforhodamine B assay; conditions: read-out: Activity
SW-620 [13] = test: Growth inhibition of human SW620 cells by sulforhodamine B assay
NCI-H460 [14] = test: Growth inhibition of human NCI-H460 cells assessed as cell growth at 10^-8 M by sulforhodamine B assay; conditions: read-out: Activity
SNB-19 = test: Growth inhibition of human SNB19 cells assessed as cell growth at 10^-6 M by sulforhodamine B assay; conditions: read-out: Activity
UACC-62 [15] = test: Growth inhibition of human UACC62 cells assessed as cell growth at 10^-4 M by sulforhodamine B assay; conditions: read-out: Activity
SK-MEL-2 = test: Growth inhibition of human SK-MEL-2 cells by sulforhodamine B assay
A549 [16] = test: Growth inhibition of human A549/ATCC cells assessed as cell growth at 10^-8 M by sulforhodamine B assay; conditions: read-out: Activity
[17] = Growth inhibition of human Hs 578T cells assessed as cell growth at 10^-8 M by sulforhodamine B assay; conditions: read-out: Activity
HOP-92 [18] = test: Growth inhibition of human HOP92 cells by sulforhodamine B assay
NCI-H460 [19] = test: Growth inhibition of human NCI-H460 cells assessed as cell growth at 10^-7 M by sulforhodamine B assay; conditions: read-out: Activity
NCI-H522 = test: Growth inhibition of human NCI-H522 cells assessed as cell growth at 10^-8 M by sulforhodamine B assay; conditions: read-out: Activity
SK-OV-3 = test: Growth inhibition of human SKOV3 cells by sulforhodamine B assay
HOP-92 [20] = test: Growth inhibition of human HOP92 cells assessed as cell growth at 10^-7 M by sulforhodamine B assay; conditions: read-out: Activity
CAKI-1 = test: Growth inhibition of human CAKI-1 cells assessed as cell growth at 10^-8 M by sulforhodamine B assay; conditions: read-out: Activity
HT-29 = test: Growth inhibition of human HT-29 cells assessed as cell growth at 10^-6 M by sulforhodamine B assay; conditions: read-out: Activity
TK-10 [21] = test: Growth inhibition of human TK10 cells assessed as cell growth at 10^-8 M by sulforhodamine B assay; conditions: read-out: Activity
UACC-62 [22] = test: Growth inhibition of human UACC62 cells assessed as cell growth at 10^-8 M by sulforhodamine B assay; conditions: read-out: Activity
[23] = Growth inhibition of human NCI-ADR-RES cells assessed as cell growth at 10^-6 M by sulforhodamine B assay; conditions: read-out: Activity
SW-620 [24] = test: Growth inhibition of human SW620 cells assessed as cell growth at 10^-8 M by sulforhodamine B assay; conditions: read-out: Activity
[25] = read-out: LC50 (the source's name)
[26] = read-out: pLC50 (the source's name) (converted)

## CC1(C)C[C@@H](O)[C@]2(C(=O)O)CC[C@]3(C)C(=CC[C@@H]4[C@@]5(C)C/C(=C\C=C\c6ccccc6)C(=O)C(C)(C)[C@@H]5CC[C@]43C)[C@@H]2C1
786-0 [1]
  growth at 0.1 µM: 100%
786-0 [2]
  growth at 100 µM: -85%
KM12; read-out: GI50
  GI50: 3.01 µM
KM12; read-out: LC50
  LC50 (50% net cell kill): 47.2 µM
KM12; read-out: TGI
  TGI: 11.2 µM
KM12; read-out: pGI50 (converted)
  GI50: 3.02 µM
KM12; read-out: pLC50 (converted)
  LC50 (50% net cell kill): 46.8 µM
KM12; read-out: pTGI (converted)
  TGI: 11.2 µM
SW-620 [3]
  growth at 1 µM: 91%
NCI-H322M [4]; read-out: GI50
  GI50: 3.45 µM
NCI-H322M [4]; read-out: LC50
  LC50 (50% lethal concentration): 48.7 µM
NCI-H322M [4]; read-out: TGI
  TGI: 13.7 µM
NCI-H322M [4]; read-out: pGI50 (converted)
  GI50: 3.47 µM
NCI-H322M [4]; read-out: pLC50 (converted)
  LC50 (50% lethal concentration): 49 µM
NCI-H322M [4]; read-out: pTGI (converted)
  TGI: 13.8 µM
MDA-MB-468
  growth at 1 µM: 92%
MOLT-4
  growth at 0.01 µM: 104%
HOP-62; read-out: GI50
  GI50: 4.72 µM
HOP-62; read-out: LC50
  LC50 (concentration killing 50% of cells): 83.5 µM
HOP-62; read-out: TGI
  TGI: 21.2 µM
HOP-62; read-out: pGI50 (converted)
  GI50: 4.68 µM
HOP-62; read-out: pLC50 (converted)
  LC50 (concentration killing 50% of cells): 83.2 µM
HOP-62; read-out: pTGI (converted)
  TGI: 21.4 µM
TK-10 [5]
  growth at 100 µM: -86%
A549 [6]
  growth at 1 µM: 88%
K562 [7]; read-out: GI50
  GI50: 3.74 µM
K562 [7]; read-out: LC50
  LC50: > 100 µM
K562 [7]; read-out: TGI
  TGI: > 100 µM
K562 [7]; read-out: pGI50 (converted)
  GI50: 3.72 µM
K562 [7]; read-out: pLC50 (converted)
  LC50: > 100 µM
K562 [7]; read-out: pTGI (converted)
  TGI: > 100 µM
IGROV-1 [8]
  growth at 100 µM: -59%
OVCAR-4
  growth at 1 µM: 89%
HCT-15
  growth at 0.1 µM: 96%
K562 [9]
  growth at 0.1 µM: 102%
IGROV-1 [10]; read-out: GI50
  GI50: 4.14 µM
IGROV-1 [10]; [25]
  CC50: 73.8 µM
IGROV-1 [10]; read-out: TGI
  TGI: 14.4 µM
IGROV-1 [10]; read-out: pGI50 (converted)
  GI50: 4.17 µM
IGROV-1 [10]; [26]
  CC50: 74.1 µM
IGROV-1 [10]; read-out: pTGI (converted)
  TGI: 14.5 µM
HCT-116
  growth at 100 µM: -55%
NCI-H322M [11]
  growth at 100 µM: -78%
[12]; read-out: GI50
  GI50: 3.29 µM
[12]; [25]
  CC50: 43.2 µM
[12]; read-out: TGI
  TGI: 14.1 µM
[12]; read-out: pGI50 (converted)
  GI50: 3.31 µM
[12]; [26]
  CC50: 43.7 µM
[12]; read-out: pTGI (converted)
  TGI: 14.1 µM
PC-3
  growth at 0.1 µM: 96%
SW-620 [13]; read-out: GI50
  GI50: 3.39 µM
SW-620 [13]; [25]
  CC50: 78.8 µM
SW-620 [13]; read-out: TGI
  TGI: 15.4 µM
SW-620 [13]; read-out: pGI50 (converted)
  GI50: 3.39 µM
SW-620 [13]; [26]
  CC50: 79.4 µM
SW-620 [13]; read-out: pTGI (converted)
  TGI: 15.5 µM
NCI-H460 [14]
  growth at 0.01 µM: 102%
SNB-19
  growth at 1 µM: 88%
UACC-62 [15]
  growth at 100 µM: -96%
SK-MEL-2; read-out: GI50
  GI50: 2.35 µM
SK-MEL-2; [25]
  CC50: 26.3 µM
SK-MEL-2; read-out: TGI
  TGI: 5.57 µM
SK-MEL-2; read-out: pGI50 (converted)
  GI50: 2.34 µM
SK-MEL-2; [26]
  CC50: 26.3 µM
SK-MEL-2; read-out: pTGI (converted)
  TGI: 5.62 µM
A549 [16]
  growth at 0.01 µM: 98%
[17]
  growth at 0.01 µM: 97%
HOP-92 [18]; read-out: GI50
  GI50: 1.92 µM
HOP-92 [18]; [25]
  CC50: 36.6 µM
HOP-92 [18]; read-out: TGI
  TGI: 6.67 µM
HOP-92 [18]; read-out: pGI50 (converted)
  GI50: 1.91 µM
HOP-92 [18]; [26]
  CC50: 36.3 µM
HOP-92 [18]; read-out: pTGI (converted)
  TGI: 6.61 µM
NCI-H460 [19]
  growth at 0.1 µM: 101%
NCI-H522
  growth at 0.01 µM: 89%
SK-OV-3; read-out: GI50
  GI50: 3.81 µM
SK-OV-3; [25]
  CC50: 46.4 µM
SK-OV-3; read-out: TGI
  TGI: 14.8 µM
SK-OV-3; read-out: pGI50 (converted)
  GI50: 3.8 µM
SK-OV-3; [26]
  CC50: 46.8 µM
SK-OV-3; read-out: pTGI (converted)
  TGI: 14.8 µM
HOP-92 [20]
  growth at 0.1 µM: 90%
CAKI-1
  growth at 0.01 µM: 94%
HT-29
  growth at 1 µM: 99%
TK-10 [21]
  growth at 0.01 µM: 98%
UACC-62 [22]
  growth at 0.01 µM: 96%
[23]
  growth at 1 µM: 87%
SW-620 [24]
  growth at 0.01 µM: 99%
